Values of other authors as cited in US20140170075A1, “NON-INVASIVE IMAGING METHODS FOR PATIENT SELECTION FOR TREATMENT WITH NANOPARTICULATE THERAPEUTIC AGENTS” (Merrirnack Pharmaceuticals, Inc., priority 2012, published 2014).

Test system: cancer cell proliferation
Details: more active than irinotecan

CCc1c2c(nc3ccc(O)cc13)-c1cc3c(c(=O)n1C2)COC(=O)[C@]3(O)CC [SN-38]
activity as an inhibitor of cancer cell proliferation relative to irinotecan: 100-1000 ×
